In ChEMBL document CHEMBL1152171 (Bioorg Med Chem Lett, 2008):

Target: Synaptic vesicular amine transporter (Rattus norvegicus, UniProt Q01827)
Assay: Displacement of [3H]dihydrotetrabenazine from vesicular monoamine transporter-2 in rat brain synaptosome
Type: tissue-based

Chain of Synaptic vesicular amine transporter (Q01827 whole entry): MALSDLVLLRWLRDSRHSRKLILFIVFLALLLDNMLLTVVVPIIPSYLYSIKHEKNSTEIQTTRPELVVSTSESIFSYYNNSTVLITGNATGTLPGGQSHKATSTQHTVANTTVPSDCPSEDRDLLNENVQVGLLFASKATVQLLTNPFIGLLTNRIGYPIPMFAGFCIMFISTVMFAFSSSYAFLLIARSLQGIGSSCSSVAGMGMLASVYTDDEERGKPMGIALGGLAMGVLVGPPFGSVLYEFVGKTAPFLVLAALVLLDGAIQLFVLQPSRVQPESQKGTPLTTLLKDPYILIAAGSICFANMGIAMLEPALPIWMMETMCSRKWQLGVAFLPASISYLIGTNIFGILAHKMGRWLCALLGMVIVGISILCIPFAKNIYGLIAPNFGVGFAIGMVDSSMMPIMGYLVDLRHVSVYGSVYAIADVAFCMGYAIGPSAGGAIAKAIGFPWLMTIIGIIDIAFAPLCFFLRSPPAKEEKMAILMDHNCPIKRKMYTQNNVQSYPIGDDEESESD

Row | Compound | Ki
1 | c1ccc(C[C@H]2CCC[C@@H](c3ccccc3)N2)cc1 | 24.1 µM
2 | CN1[C@H](CCCc2ccccc2)CCC[C@@H]1CCCc1ccccc1 | 1 µM
3 | c1ccc(CCC[C@H]2CCC[C@@H](Cc3ccccc3)N2)cc1 | 1.13 µM
4 | CN1[C@@H](Cc2ccccc2)CCC[C@H]1Cc1ccccc1 | 10.5 µM
5 | CN1[C@@H](CCc2ccccc2)CCC[C@H]1Cc1ccccc1 | 2.77 µM
6 | CN1[C@@H](CCCc2ccccc2)CCC[C@H]1c1ccccc1 | 62.5 µM
7 | CN1[C@@H](Cc2ccccc2)CCC[C@H]1c1ccccc1 | 13.6 µM
8 | c1ccc(CCC[C@H]2CCC[C@@H](c3ccccc3)N2)cc1 | 28.6 µM
9 | c1ccc(CC[C@H]2CCC[C@@H](Cc3ccccc3)N2)cc1 | 12.2 µM
10 | CN1[C@@H](c2ccccc2)CCC[C@H]1c1ccccc1 | > 100 µM
11 | c1ccc(CCC[C@H]2CCC[C@@H](CCc3ccccc3)N2)cc1 | 4.6 µM
12 | CN1[C@@H](CCCc2ccccc2)CCC[C@H]1CCc1ccccc1 | 0.88 µM
13 | c1ccc(CC[C@H]2CCC[C@@H](c3ccccc3)N2)cc1 | 28.4 µM
14 | CN1[C@@H](CCCc2ccccc2)CCC[C@H]1Cc1ccccc1 | 1.62 µM
15 | c1ccc(C[C@H]2CCC[C@@H](Cc3ccccc3)N2)cc1 | 7.68 µM
16 | c1ccc(CCC[C@@H]2CCC[C@H](CCCc3ccccc3)N2)cc1 | 4.56 µM
